Measured values as given in patent publication US20210095293A1, “METHODS OF TREATING CANCERS WITH GPR132 INHIBITORS” (The Board of Regents of the University of Texas System, priority 2016, published 2021).
Where a name gives a salt, the structure may show the parent alone.

Assays:
Format in all cases: cell-based, mouse
Gpr132 = assay: calcium mobilization assay in BMDMs; details: WT or Gpr132-KO BMDMs stimulated with 25 mM
Method: FIG. 27. […] WT or Gpr132-KO BMDMs were stimulated with 25 mM lactate (Left) or HCl (Right) (n=3).
To determine whether Gpr132 is required for lactate signaling in macrophages, a calcium mobilization assay was performed. […] First, lactate levels in the CM of distinct cancer cell lines were measured using a Vitros 250 chemistry analyzer. […] Second, the effects of blocking lactate production from EO771 and 4T1.2 cells by oxamic acid, an inhibitor of lactate dehydrogenase was tested.

[1] = test system: bone marrow derived macrophages (BMDMs); assay: macrophage M2-like morphology (elongation); details: cancer cells treated with oxamic acid 90 mM for 3 days before CM harvest
Text: FIGS. 9A-9D. Tumor-derived factors activate M2-like macrophages via Gpr132. (FIG. 9A) The pH values of conditioned media (CM) from cancer cells or macrophages (n=5-8); *p<0.05, ****p<0.001 compared with RAW 264.7 macrophage CM. (FIG. 9B) Western blot for CD206 and Gpr132 in RAW 264.7 macrophages after treatment with indicated cancer cell CM for 24 hrs. Actin was used as a loading control. The CD206/actin or Gpr132/actin ratio was quantified and shown as fold changes compared to control (n=3); *p<0.05, ***p<0.005 compared with control. (FIG. 9C) Flow cytometry analysis of Gpr132 and CD206 in BMDMs with or without EO771 CM treatment. The experiments were repeated twice and the representative results are shown. (FIG. 9D) Immunofluorescence staining for CD11b in WT and Gpr132-KO BMDMs after differentiation in the absence or presence of 30% EO771 CM or 4T1.2 CM for 7 days. Elongated macrophage morphology indicates a M2-like phenotype. Nuclei were stained with DAPI. Scale bar, 25 μm. WT, wild-type; Gpr132-KO, Gpr132 knockout.
FIGS. 10A-10F. […] LC-MS was used to quantify lactate in the eluent of Gpr132 co-IP. (Left) Representative LC-MS chromatograms; (Right) Quantification of relative lactate binding (n=3). ****p<0.001 compared with WT. […] CD206/actin ratio was quantified and shown as fold changes compared to control (n=3-4); *p<0.05 compared with WT control. […]

[2] = test system: breast cancer cells (EO771, 4T1.2); assay: Boyden chamber assay, cancer cell invasion (matrigel); details: oxamic acid 90 mM pre-treatment; WT macrophages
Method: (§1) FIGS. 11A-11C. Lactate-activated macrophage promotes cancer cell adhesion, migration and invasion via Gpr132. (FIG. 11A) Adherence assays. 4T1.2 cells were suspended in fibronectin ([…]) pre-coated plates with CM from spleen-derived macrophages (mf) that were treated with 4T1.2 CM or lactate (5 mM) with or without Gpr132 antibody (6 mg/ml) or normal IgG (6 mg/ml) for 10 min. The adhered cells were stained with crystal violet, dissolved in 1% Triton X-100 and measured by OD590. (FIGS. 11B-11C) Boyden chamber assay of cancer cell migration and invasion. 4T1.2 cells (B) or EO771 cells (FIG. 11C) were plated on the upper chamber inserts, with untreated (Control), 4T1.2 CM-activated or lactate-activated spleen-derived WT or Gpr132-KO macrophages plated in the lower chambers. For invasion assay, the inserts were pre-coated with 60 μl matrigel. After migration for 6 hrs (FIG. 11B) or invasion for 24 hrs (FIG. 11C), the migrated or invaded cells were stained with crystal violet and counted as cells per field of view under microscope (n=3-4); For (FIG. 11C), the first bar of each data set of the bar graphs represents the control mf, and the second bar represents Gpr132KO; *p<0.05; **p<0.01; ***p<0.005; ****p<0.001. Scale bar, 500 μm.
(§2) FIGS. 23A-23B. Cancer cell-derived lactate activates macrophages to promote cancer cell migration and invasion via Gpr132. (FIGS. 23A-23B) Boyden chamber assay. EO771 or 4T1.2 cells were cultured in the presence or absence of oxamic acid (90 mM) for 3 days. CM was harvested after the cells were cultured for another 24 hrs without oxamic acid. […] After migration for 6 hrs (FIG. 23A) or invasion for 24 hrs (FIG. 23B), the migrated or invaded cells were stained with crystal violet and counted as cells per field of view under microscope (n=3-4); for (FIG. 23A), the bars in each data set of the bar graph represent, from left to right, control, EO771, Oxamic acid, and Oxamic acid+Lactate; for (FIG. 23B), the bars in each data set of the bar graph represent, from left to right, control, 4T1.2CM, Oxamic acid, and Oxamic acid+Lactate; *p<0.05; ****p<0.001. […]

[3] = test system: breast cancer cells (4T1.2, EO771); assay: Boyden chamber assay, cancer cell migration; details: oxamic acid 90 mM pre-treatment; WT macrophages
Method: as §1
as §2, with “acid. As a rescue, CM of oxamic acid-treated EO771 or 4T1.2 cells was supplemented with exogenous lactate.” for “acid.”
Migration or invasion of breast cancer cells was examined using 24-well Boyden chambers (Corning, Corning, N.Y.) with transwell inserts of […] pore size, coated without (for migration) or with matrigel (for invasion) as previously reported. […] The migrated or invaded cells were fixed with methanol and stained with crystal violet (0.05%, sigma), and then counted as cells per field of view under microscope or measured as OD570 after crystal violet was dissolved.

EO771 and 4T1.2 cells = assay: lactate and pH in cancer cell conditioned media; details: oxamic acid 90 mM for 3 days, CM after another 24 hrs
Method: FIGS. 18A-18E. Lactate secreted by EO771 and 4T1.2 cells is responsible for the low pH in their CM. (FIG. 18A) Lactate levels in the conditional media (CM) from various cancer cells (n=3); *p<0.05, ****p<0.001 compared with EO771 CM; #### p<0.001 compared with 4T1.2 CM. (FIG. 18B) Lactate levels in EO771 CM at the indicated time point of culture (n=3). (FIG. 18C) Lactate levels in the whole CM, <3 kDa and >3 kDa fractions of CM from 24 h EO771 cell cultures (n=3). (FIGS. 18D-18E) EO771 and 4T1.2 cells were treated with or without oxamic acid (90 mM) for 3 days. CM was harvested after the cells were cultured for another 24 hrs without oxamic acid before lactate (FIG. 18D) and pH (FIG. 18E) quantification (n=3). **p<0.01, ***p<0.005, ****p<0.001.
RAW264.7, EO771, 4T1.2, PY8119, PY230, SCP-4, SCP-6, SCP-28, MDA-1883, MDA-2287 and B16F10 cell lines were cultured in culture media containing 10% FBS (Sigma) and 1:100 antibiotic-antimycotic (Gibco). Conditioned media were obtained from serum-free media after culturing cells for 24 hrs or as indicated. Bone marrow-derived macrophages (BMDMs) and spleen-derived macrophages from WT and Gpr132-KO mice were cultured as previously described. Lactate in the conditioned media was quantified using a Vitros 250 chemistry analyzer at the UT Southwestern Metabolic Phenotyping Core.

macrophages = assay: M2 marker expression in macrophages (Western blot, RT-qPCR, flow cytometry); details: IL-4 10 ng/ml for 16 hrs, spleen macrophages
Method: After blocking with 10% BSA for 10 min, cells were incubated with anti-CD206 (Rabbit polyclonal, Abcam) or anti-Gpr132 (Rabbit polyclonal, Sigma) antibodies (1:100) for 30 min at 4° C., washed with cold PBS, and then incubated with FITC-conjugated secondary antibodies (1:100) for 30 min at 4° C. After washing twice using cold PBS, cells were analyzed by flow cytometer (Becton Dickinson). RNA was isolated from cells or mouse tissues using Trizol (Invitrogen) following the manufacturer's instructions. RNA (200-500 ng) was first treated with RNase-free DNase I using the DNA-free kit (Ambion) to remove all genomic DNA, and then reverse-transcribed into cDNA using an ABI High Capacity cDNA RT Kit (Invitrogen). The cDNA was analyzed using real-time quantitative PCR (SYBR Green, Invitrogen) with an Applied Biosystems 7900 Sequence Detection System. Each reaction was performed in triplicate in a 384-well format. The expression of each gene was normalized by that of mouse ribosomal protein L19. Samples of 20 μg protein were applied to SDS polyacrylamide gels. After protein transfer, membranes were incubated with antibodies for […] (rabbit polyclonal, Santa Cruz Biotechnology), CD206, Gpr132, or β-actin (mouse monoclonal, Sigma) (1:1000) overnight at 4° C. Membranes were washed, and then incubated with HRP-conjugated secondary antibodies (1:1000) for 1 hr at room temperature before signal detection by chemiluminescence (Pierce). Densitometric quantification was performed by Image-Pro Plus 6.0 software (Media Cybernetics). PathScan Akt Signaling Antibody Array (Cell Signaling) was incubated with macrophage proteins and analyzed following kit instructions.

Cl [hydrochloric acid (HCl), hydrochloric acid]
effect of Gpr132 deletion on triggered calcium mobilization (Gpr132): not

NC(=O)C(=O)O [oxamic acid]
ability of EO771 or 4T1.2 CM to induce M2-like morphology in WT BMDMs [1]: completely abolished | effects of CM-activated WT macrophages on cancer cell invasion after pre-treatment of cancer cells [2]: abolished | effects of CM-activated WT macrophages on cancer cell migration after pre-treatment of cancer cells [3]: abolished | lactate in the CM (EO771 and 4T1.2 cells): depleted

B1: IL-4: standard T helper 2 cytokine used to trigger macrophage M2 activation (protein, UniProt P05112 25-153, looked up)
Interleukin-4: HKCDITLQEIIKTLNSLTEQKTLCTELTVTDIFAASKNTTEKETFCRAATVLRQFYSHHEKDTRCLGATAQQFHRHKQLIRFLKRLDRNLWGLAGLNSCPVKEANQSTLENFLERLKTIMREKYSKCSS
induction of M2 markers (Arg-1, CCL17, CCL22, PPAR-γ, YM-1, YM-2), WT vs Gpr132-KO macrophages (macrophages): equally well
